Measured values as given in patent US11857550B2, “Benzathine analogs” (University of Pittsburgh—Of the Commonwealth System of …, priority 2012, dated 2024).

Test system: C57BL6 mice
Format: in vivo
Conditions: 30 ug/ml in drinking water, day 5

`c1ccc(-c2ccc(CNCCNCc3ccc(-c4ccccn4)cc3)cc2)nc1` [BC-1215] was tested, and the lung resistance was “decreased lung resistance”.
